{
  "source": "patent US12357654B2",
  "about": "“Application of glucan in preparation of drug” (Qingdao Conson Pharmaceutical Co., Ltd., priority 2019, dated 2025)",
  "key": {"[1]": {"test_system": "immune cell subpopulations in blood and tumors", "assay": "Flow cytometric analysis of immune cell subpopulations in blood and tumors, B16 model with anti-PD-1 antibody", "type": "in vivo, C57BL/6J mice", "experimental": "(§1) A cell suspension of 3×10^5 mouse melanoma cell line B16 (presented by PerkinElmer) was injected subcutaneously into C57BL/6J mice (female, 6-8 weeks old, purchased from Jinan Pengyue Experimental Animal Company). The administration experiments were performed about 4 days after implantation when B16 tumors have grown to be palpable. Mice were divided into four groups and treated with vehicle or β-1,3/1,6-glucan (4 mg/kg, i.v., twice a week) alone, or in combination with anti-PD-1 antibody (anti-mouse PD-1 antibody purchased from BioxCell, 200 μg per mouse, i.v., once a week). Tumor volumes were evaluated and tumor weights were recorded. After sacrifice of mice, blood and tumor samples were collected for flow cytometric analysis.\nBlood samples were collected by cardiac puncture, collected into EDTA-anticoagulation tubes. 50 μl of whole blood was taken for blood analysis, 50 μl of whole blood was taken for erythrocyte lysis (erythrocyte lysis buffer, Meltenyi), and the remaining whole blood was centrifuged at 3500 rpm for 7 min and the plasma was taken and stored at −80° C. Spleens and thymus were weighed for recording. Subcutaneous tumors of mice, about 0.2-0.5 g of tumors tissues, were taken, and single cell suspensions from the tumor samples were obtained by Mouse Tumor Dissociation Kit (Meltenyi). The blood cells after erythrocyte lysis as well as the dissociated tumor cell suspensions were subjected to subsequent processing, as well as flow cytometric detection\nThe single-cell suspensions were blocked with blocking buffer (20% FBS, 1:100 CD16/CD32 antibody and 1:100 rat IgG) for 20 min, and incubated and stained with the corresponding immune cell surface protein antibodies (CD11 b-PE, CD4-BV510, CD8-PerCP-Cy5.5, CD19-APC, CD3-FITC, CD206-PE-Cy7, Ly6C-APC) for 30 minutes at 4° C. Analysis of immune cell population ratios was performed by FACS\nArial III (BD Biosciences). The specific procedure was delineating the cell population in the FSC/SSC quadrant, delineating single cell population by FSC-H and FSC-A, and delineating corresponding immune cells by immune cell surface markers, and calculating the cell ratio or relative concentration.\n(§2) Combination treatment also upregulates pro-inflammatory monocyte-derived macrophages (CD11b+Ly6Chi, FIG. 1E) in the peripheral blood. […] In addition, it was detected that the combination application of β-1,3/1,6-glucan and PD-1 antibodies enhances the percentage of CD4 and CD8 T cells in the blood and tumor (FIG. 2). It was shown that β-1,3/1,6-glucan and anti-PD-1 antibodies synergistically increase tumor infiltration of pro-inflammatory macrophages, decrease the percentage of immunosuppressive TAM, and increase the ratio of acquired immune cells T and B cells, resulting in building up a more pro-inflammatory and anti-tumoral tumor microenvironment."}, "[2]": {"test_system": "lymphocytes in peripheral blood", "assay": "Relative lymphocyte concentration in peripheral blood by FACS, B16 model with anti-PD-1 antibody", "type": "in vivo, C57BL/6J mice", "conditions": "8 mg/kg β-1,3/1,6-glucan combined with PD-1 antibody, versus PD-1 antibody alone; FIG. 4", "experimental": "as §1, with “Mice were divided into four groups and treated with vehicle or β-1,3/1,6-glucan (4 mg/kg, i.v., twice a week) alone, or in combination with anti-PD-1 antibody (anti-mouse PD-1 antibody purchased from BioxCell, 200 μg per mouse, i.v., once a week).” left out\nThe experimental method was the same as in Example 1. On day 14, blood was taken from the heart after animal sacrificed, and placed in EDTA-anticoagulation tubes. After mixing, 50 μl of whole blood was taken. 5 μl of GFP microspheres were added to each sample for erythrocyte lysis.\n(§3) The single-cell suspensions were blocked with blocking buffer (20% FBS, 1:100 CD16/CD32 antibody and 1:100 rat IgG) for 20 min, and incubated and staining with the corresponding immune cell surface protein antibodies (CD4-BV510, CD8-PerCP-Cy5.5, CD19-APC, CD3-FITC) for 30 minutes at 4° C. Analysis of immune cell population ratios was performed by FACS Arial III (BD Biosciences). The specific procedure was delineating the cell population in the FSC/SSC quadrant, delineating the single cell population by FSC-H and FSC-A, and delineating the corresponding immune cells by immune cell surface markers, and calculating the relative immune cell concentration."}, "[3]": {"test_system": "mouse melanoma cell line B16", "assay": "B16 syngeneic tumor model after local radiotherapy: tumor volume, tumor weight", "type": "in vivo, C57BL/6J mice", "conditions": "local radiotherapy 10 Gy day 5; glucan by tail vein once a week (day 6, day 14); sacrificed day 17; FIGS. 5-7", "experimental": "(§4) A cell suspension of 3×10^5 mouse melanoma cell line B16 (presented by PerkinElmer) was injected subcutaneously into C57BL/6J mice (female, 6-8 weeks old, purchased from Jinan Pengyue Experimental Animal Company)(Overwijk & Restifo, 2001). About 5 days after tumor implantation, local radiotherapy (tumor injection area, 10 Gy) was applied. On day 6 and day 14, vehicle or β-1,3/1,6-glucan was administered (tail vein injection, once a week), during this period, tumor volume and mouse body weight were measured, and on day 17, after the animals were sacrificed, tumor weight was measured."}, "[4]": {"test_system": "mouse melanoma cell line B16", "assay": "B16 syngeneic tumor model with carboplatin chemotherapy: tumor volume, tumor weight", "type": "in vivo, C57BL/6J mice", "conditions": "BG136 4 mg/kg tail vein with carboplatin 30 mg/kg i.p. twice a week; sacrificed day 15; FIGS. 17-21", "experimental": "(§5) A cell suspension of 3×10^5 mouse melanoma cell line B16 (presented by PerkinElmer) was injected subcutaneously into C57BL/6J mice (females, 6-8 weeks old, purchased from Jinan Panyue Experimental Animal Company) (Overwijk & Restifo, 2001). About 2 days after tumor implantation, carboplatin (30 mg/kg, twice a week) was injected intraperitoneally and BG136 (4 mg/kg) or lentinan LNT (2 mg/kg) was injected via the tail vein, and tumor volume were measured during administration, and on day 15, after animals were sacrificed, tumor weight was measured. Blood was taken from the heart after animals were sacrificed, placed in EDTA-anticoagulation tubes. After mixing, 50 μl of whole blood was taken and the immune cell concentration was measured by a hematology analyzer."}, "leukocytes": {"test_system": "leukocytes", "assay": "Immune cell concentration by hematology analyzer, B16 model after radiotherapy", "type": "in vivo, C57BL/6J mice", "conditions": "local radiotherapy 10 Gy, glucan by tail vein once a week, FIGS. 8-15", "experimental": "as §4, with “week),” for “week), during this period, tumor volume and mouse body weight were measured,”, “measured. Blood was taken from the heart after animal sacrificed, placed into EDTA-anticoagulation tubes. After mixing, 50 μl of whole blood was taken and the immune cell concentration was measured by a hematology analyzer.” for “measured.”"}, "leukocytes and platelets": {"test_system": "leukocytes and platelets", "assay": "Leukocytes and platelets by hematology analyzer, B16 model with carboplatin chemotherapy", "type": "in vivo, C57BL/6J mice", "conditions": "BG136 4 mg/kg tail vein with carboplatin 30 mg/kg i.p. twice a week; day 15; FIGS. 17-21", "experimental": "as §5"}, "[5]": {"test_system": "mouse melanoma cell line B16", "assay": "B16 syngeneic tumor model, β-1,3/1,6-glucan with anti-PD-1 antibody: tumor volume, tumor weight, body weight", "type": "in vivo", "experimental": "as §1, §2"}, "[6]": {"test_system": "CD4, CD8 and CD19 cells in peripheral blood", "assay": "Relative CD4, CD8, CD19 cell concentration in peripheral blood by FACS, B16 model after radiotherapy", "type": "in vivo, C57BL/6J mice", "conditions": "8 mg/kg β-1,3/1,6-glucan after radiotherapy, FIG. 16", "experimental": "On day 14, blood was taken from the heart after animals were sacrificed, and placed in EDTA-anticoagulation tubes. After mixing, 50 μl of whole blood was taken. 5 μl of GFP microspheres were added to each sample for erythrocyte lysis.\nas §3, with “CD19-APC)” for “CD19-APC, CD3-FITC)”, “Anal” for “Arial”"}, "platelets": {"test_system": "platelets", "assay": "Platelet concentration by hematology analyzer, B16 model with anti-PD-1 antibody", "type": "in vivo, C57BL/6J mice", "conditions": "blood day 14, FIG. 3"}, "[7]": {"conditions": "combination with PD-1 antibody, FIG. 2"}, "[8]": {"conditions": "combination with anti-PD-1 antibody, flow cytometry, FIG. 1D"}, "[9]": {"conditions": "combination with anti-PD-1 antibody, within the tumor, FIG. 1F"}},
  "data": [
    {"substance": "β-1,3/1,6-glucan", "values": [
      {"measurement": "percentage of immunosuppressive tumor-associated macrophages TAM (CD11b+CD206+)", "setting": "[1]; combination treatment compared with anti-PD-1 antibody alone, within the tumor, FIG. 1G", "value": "reduced"},
      {"measurement": "percentage of CD4 T cells in the blood and tumor", "setting": "[1]; [7]", "value": "enhances"},
      {"measurement": "percentage of CD8 T cells in the blood and tumor", "setting": "[1]; [7]", "value": "enhances"},
      {"measurement": "pro-inflammatory monocyte-derived macrophages (CD11b+Ly6Chi) in the peripheral blood", "setting": "[1]; combination with anti-PD-1 antibody, FIG. 1E", "value": "upregulates"},
      {"measurement": "percentage of CD11b+ cells in the blood", "setting": "[1]; [8]", "value": "decreases"},
      {"measurement": "percentage of CD19+ cells in the blood", "setting": "[1]; [8]", "value": "increases"},
      {"measurement": "tumor infiltration of myeloid cells (CD11b+)", "setting": "[1]; [9]", "value": "more infiltration"},
      {"measurement": "tumor infiltration of pro-inflammatory macrophages (CD11b+Ly6Chi)", "setting": "[1]; [9]", "value": "more infiltration"},
      {"measurement": "relative concentration of CD3 in blood", "setting": "[2]", "value": "further increase"},
      {"measurement": "relative concentration of CD4 in blood", "setting": "[2]", "value": "further increase"},
      {"measurement": "relative concentration of CD8 in blood", "setting": "[2]", "value": "further increase"},
      {"measurement": "relative concentration of CD19 in blood", "setting": "[2]", "value": "further increase"},
      {"measurement": "anti-tumor effect in combination with radiotherapy (tumor volume, tumor weight)", "setting": "[3]", "value": "enhances the anti-tumor effect of radiotherapy"},
      {"measurement": "tumor suppressive effect in combination with carboplatin", "setting": "[4]", "value": "enhances the tumor suppressive effect of carboplatin"},
      {"measurement": "concentration of immune cells in blood after radiotherapy", "setting": "leukocytes", "value": "increasing the concentration of immune cells"},
      {"measurement": "decrease in platelets after carboplatin administration", "setting": "leukocytes and platelets", "value": "reverses"},
      {"measurement": "immune response / immunosuppression after carboplatin administration (immune cell concentration)", "setting": "leukocytes and platelets", "value": "reverses the immunosuppression"},
      {"measurement": "body weight and death of mice during treatment", "setting": "[5]; combination of β-1,3/1,6-glucan 4 mg/kg and anti-PD-1 antibody 200 μg/mouse, FIG. 1C", "value": "no significant changes"},
      {"measurement": "tumor growth inhibition, combination versus single treatment", "setting": "[5]; β-1,3/1,6-glucan 4 mg/kg i.v. twice a week combined with anti-PD-1 antibody 200 μg/mouse i.v. once a week, FIG. 1A, 1B", "value": "more effectively inhibits tumor growth than single treatment"},
      {"measurement": "anti-PD-1 antibody-induced tumor regression", "setting": "[5]; β-1,3/1,6-glucan 4 mg/kg i.v. twice a week combined with anti-PD-1 antibody 200 μg/mouse i.v. once a week, sacrificed day 14, FIG. 1A, 1B", "value": "enhances anti-PD-1 antibody-induced tumor regression"},
      {"measurement": "cell concentration of CD4 after radiotherapy", "setting": "[6]", "value": "increases"},
      {"measurement": "cell concentration of CD8 after radiotherapy", "setting": "[6]", "value": "increases"},
      {"measurement": "cell concentration of CD19 after radiotherapy", "setting": "[6]", "value": "increases"},
      {"measurement": "platelet concentration", "setting": "platelets; single agent alone", "value": "does not affect"},
      {"measurement": "platelet concentration, platelet-lowering side effect of PD-1 antibody", "setting": "platelets; β-1,3/1,6-glucan in combination with PD-1 antibody", "value": "reverses the platelet-lowering side effect"}
    ]}
  ]
}
